In the test the target is T1, DPD (Rattus norvegicus, UniProt O89000).
T1 construct: the obtained supernatant was used as a DPD enzyme solution or an OPRT enzyme solution; from tissue; host or cells: liver of 8-week old SD rat; 105,000 g supernatant of homogenate
T1 sequence (O89000 1-1025): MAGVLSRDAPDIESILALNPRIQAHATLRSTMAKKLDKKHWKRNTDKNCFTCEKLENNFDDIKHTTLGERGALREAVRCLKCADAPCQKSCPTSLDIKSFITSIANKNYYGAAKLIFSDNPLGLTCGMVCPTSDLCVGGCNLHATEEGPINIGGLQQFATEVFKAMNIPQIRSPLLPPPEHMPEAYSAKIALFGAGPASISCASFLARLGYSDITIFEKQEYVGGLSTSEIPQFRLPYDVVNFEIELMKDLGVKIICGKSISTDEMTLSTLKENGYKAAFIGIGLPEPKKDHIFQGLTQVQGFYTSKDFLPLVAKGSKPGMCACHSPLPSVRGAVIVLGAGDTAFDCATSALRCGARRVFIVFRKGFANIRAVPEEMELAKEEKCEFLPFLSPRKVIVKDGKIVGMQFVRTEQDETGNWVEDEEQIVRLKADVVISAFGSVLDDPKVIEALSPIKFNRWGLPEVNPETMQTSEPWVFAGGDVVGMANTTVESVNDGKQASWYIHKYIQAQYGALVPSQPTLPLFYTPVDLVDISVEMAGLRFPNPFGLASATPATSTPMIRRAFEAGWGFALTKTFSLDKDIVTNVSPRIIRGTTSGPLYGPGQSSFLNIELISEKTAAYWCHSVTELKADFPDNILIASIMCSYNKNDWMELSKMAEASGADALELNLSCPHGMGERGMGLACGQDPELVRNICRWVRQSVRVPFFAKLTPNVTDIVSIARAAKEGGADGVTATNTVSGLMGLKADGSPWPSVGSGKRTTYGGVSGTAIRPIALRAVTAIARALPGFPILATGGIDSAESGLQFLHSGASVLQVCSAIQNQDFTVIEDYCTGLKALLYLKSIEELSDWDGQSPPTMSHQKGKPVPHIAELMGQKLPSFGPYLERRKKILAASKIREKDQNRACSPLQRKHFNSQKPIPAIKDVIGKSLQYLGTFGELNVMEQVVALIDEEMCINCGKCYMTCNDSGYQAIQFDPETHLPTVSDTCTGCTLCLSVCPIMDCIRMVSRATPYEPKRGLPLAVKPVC
Put plainly: DPD inhibitory action in vitro (enzyme reaction, tritium-labeled 5-FU as substrate). The class given is biochemical. How it is done: The resulting product was diluted to concentrations of 1 mM, 100 μM, 10 μM, and 1 μM with a 10 mM potassium phosphate buffer solution (pH 6.0), thereby obtaining Test Liquids 1. The obtained Test Liquids 1 were separately added to the enzyme reaction solution described below to give final concentrations of 200 μM, 20 μM, 2 μM, and 0.2 μM. • (b) Test liquid preparation (2): As a DPD inhibitor, 5-chloro-2,4-dihydroxypyridine (CDHP; gimeracil) was dissolved to a concentration of 10 mM in a 10 mM potassium phosphate buffer solution (pH 6.0). The resulting product was diluted to concentrations of 1 mM, 100 μM, 10 μM, and 1 μM, thereby obtaining Test Liquids 2. The obtained Test Liquids 2 were separately added to the enzyme reaction solution to give final concentrations of 200 μM, 20 μM, 2 μM, and 0.2 μM. • (c) Test liquid preparation (3): As an OPRT inhibitor, citrazinic acid (Citra. A.) was dissolved to a concentration of 10 mM in 20 mM trishydroxyaminomethane-hydrochloric buffer solution (pH 8.0). Thereafter, the resulting product was diluted to concentrations of 1 mM, 100 μM, and 10 μM with a 10 mM potassium phosphate buffer solution, thereby obtaining Test Liquids (3). The obtained Test Liquids 3 were separately added to the enzyme reaction solution to give final concentrations of 200 μM, 20 μM, and 2 μM. • (d) Preparation of enzyme solution: The liver of an 8-week old SD rat was used as a DPD enzyme source, while human tumor cells that had been transplanted into a nude mouse and proliferated therein were used as an OPRT enzyme source. Specifically, immediately after a rat liver or successively-transplanted human tumor cells were extracted, a 50-mM tris-hydrochloric acid buffer solution (pH 8.0) containing 0.25 M saccharose, 5 mM magnesium chloride, and 1 mM dithreitol was added thereto to a concentration of 25% (w/v) and homogenized. Thereafter, ultracentrifugation was performed at 105,000 g for 60 minutes, and the obtained supernatant was used as a DPD enzyme solution or an OPRT enzyme solution. • (e) Enzyme reaction: A DPD enzyme reaction was carried out in accordance with the method of Tatsumi et al. (Gann, 78: 748-755 (1987)) using 5-FU labeled with tritium as a substrate. An OPRT enzyme reaction was carried out in accordance with the method of Shirasaka et al. (Cancer Res., 53: 4004-4009 (1993)) using 5-FU labeled with tritium as a substrate. Then, the activity of a control group (with no test compound) and test compound groups was measured. The percent inhibition of the test compound relative to DPD or OPRT was calculated using the following formula: [1-(the enzyme activity with the test compound/the enzyme activity of the control group)]×100(%).
The resulting product was diluted to concentrations of 1 mM, 100 μM, 10 μM, and 1 μM with a 10 mM potassium phosphate buffer solution (pH 6.0), thereby obtaining Test Liquids 1. The obtained Test Liquids 1 were separately added to the enzyme reaction solution described below to give final concentrations of 200 μM, 20 μM, 2 μM, and 0.2 μM. • (b) Preparation of enzyme solution: The liver of an 8-week old SD rat was used as a DPD enzyme source, while human tumor cells that had been transplanted into a nude mouse and proliferated therein were used as an OPRT enzyme source. Specifically, immediately after a rat liver or successively-transplanted human tumor cells were extracted, a 50-mM tris-hydrochloric acid buffer solution (pH 8.0) containing 0.25 M saccharose, 5 mM magnesium chloride, and 1 mM dithreitol was added thereto to a concentration of 25% (w/v) and homogenized. Thereafter, ultracentrifugation was performed at 105,000 g for 60 minutes, and the obtained supernatant was used as a DPD enzyme solution or an OPRT enzyme solution. • (c) Enzyme reaction: A DPD enzyme reaction was carried out in accordance with the method of Tatsumi et al. (Gann, 78: 748-755 (1987)) using 5-FU labeled with tritium as a substrate. […]

Setting [1] is: 0.2 μM, Table 2, read-out: DPD Inhibition (%).
[2] abbreviates: 2 μM, Table 2, read-out: DPD Inhibition (%).

Read-outs that look alike come from different tables or passages of the source.

What is called inhibition is how much of the control response was suppressed. Regarding `CCOCn1cc(F)c(=O)n(C(=O)c2cccc(C(=O)Oc3cc(OC(=O)c4cc(O)nc(O)c4)c(Cl)cn3)c2)c1=O` [Compound I-2, 3-{3-[4-(2,6-dihydroxyisonicotinoyloxy)-5-chloro-2-pyridyloxycarbonyl]benzoyl}-1-ethoxymethyl-5-fluorouracil], the “DPD Inhibitory Activity: Activity” value by setting is: (Conc. 0.2 μM, Table 1) 0.613 nmol/mL/min; (Conc. 2 μM, Table 1) 0.157 nmol/mL/min; (Conc. 20 μM, Table 1) 0.075 nmol/mL/min; (Conc. 200 μM, Table 1) 0.100 nmol/mL/min. For the same compound, the inhibition at 0.2 µM (Conc. 0.2 μM, Table 1, read-out: DPD Inhibitory Activity: Inhibition) was 39.2%. Further, the inhibition at 2 µM (Conc. 2 μM, Table 1, read-out: DPD Inhibitory Activity: Inhibition) stood at 84.4%. In addition, testing at 20 µM (Conc. 20 μM, Table 1) gave an inhibition of 92.6%. The same compound yielded an inhibition at 200 µM (Conc. 200 μM, Table 1) of 90%.

`CCOCn1cc(F)c(=O)n(C(=O)c2cccc(C(=O)Oc3cc(OC(=O)c4cc(OC(=O)C5CCCC5)nc(OC(=O)C5CCCC5)c4)c(Cl)cn3)c2)c1=O` [Compound I-9, 3-{3-[4-(2,6-dicyclopentanecarbonyloxyisonicotinoyloxy)-5-chloro-2-pyridyloxycarbonyl]benzoyl}-1-ethoxymethyl-5-fluorouracil]: the inhibition at 0.2 µM under setting [1] turned out to be 45.7%. Also, the inhibition at 2 µM under setting [2] is 74.6%.

Regarding `CCOCn1cc(F)c(=O)n(C(=O)c2cccc(C(=O)Oc3cc(OC(=O)c4cc(OC(C)=O)nc(OC(C)=O)c4)c(Cl)cn3)c2)c1=O` [Compound I-10, 3-{3-[4-(2,6-diacetyloxyisonicotinoyloxy)-5-chloro-2-pyridyloxycarbonyl]benzoyl}-1-ethoxymethyl-5-fluorouracil], the inhibition at 0.2 µM under setting [1] was 43.9%. Besides, the inhibition at 2 µM under setting [2] is 77.2%.

What is called IC50 is the point on the concentration scale where inhibition reaches its midpoint. In the case of `CCOCn1cc(F)c(=O)n(C(=O)c2cccc(C(=O)Oc3cc(OC(=O)c4cc(OC(=O)CC)nc(OC(=O)CC)c4)c(Cl)cn3)c2)c1=O` [Compound I-11, 3-{3-[4-(2,6-dipropionyloxyisonicotinoyloxy)-5-chloro-2-pyridyloxycarbonyl]benzoyl}-1-ethoxymethyl-5-fluorouracil], the IC50 (5-FU as substrate, Test Example 4, read-out: IC50 of DPD activity inhibition) was around 0.5 µM. The “DPD Inhibitory Activity: Activity” value (Conc. 0.2 μM, Table 5) turned out to be 0.285 nmol/mL/min; the “DPD Inhibitory Activity: Activity” value (Conc. 2 μM, Table 5) turned out to be 0.216 nmol/mL/min; the “DPD Inhibitory Activity: Activity” value (Conc. 20 μM, Table 5) stood at 0.081 nmol/mL/min. The inhibition at 0.2 µM (Conc. 0.2 μM, Table 5, read-out: DPD Inhibitory Activity: Inhibition) was determined as 56.8%. Also, where the note is “Conc. 2 μM, Table 5, read-out: DPD Inhibitory Activity: Inhibition”, the inhibition at 2 µM is 67.2%. Also, testing at 20 µM (Conc. 20 μM, Table 5) gave an inhibition of 87.7%.

These data come from patent US8889699B2, “5-fluorouracil derivative” (Delta-Fly Pharma, Inc., priority 2009, dated 2014).
